Data on eleven compounds can be found in patent US5091521A, “Cis-platinum complexes, a process for the preparation thereof, and pharmaceuticals containing these compounds” (priority 1986, dated 1992).

A word on the IC50: it is the midpoint of a concentration-inhibition curve. Usually LD50 stands for the dose at which mortality reaches 50%.

One data set relates to L1210 leukemia cells. As to the kind of experiment: Colonization by L1210 leukemia cells in soft agar (cytostatic activity in vitro). In kind it is cell-based, mouse. The note with it: L1210 colony formation in soft agar, 7 days. The protocol:
The cytostatic activity of the compounds according to the invention is determined on L1210 leukemia cells of the mouse. In detail, the following test systems were used:
a) Colonization by L1210 leukemia cells in soft agar
In this test cytostatically active substances cause the number of colonies observed to be reduced compared to an untreated control. In detail, the test is carried out as follows:
500 leukemia cells per plate are incubated for 1 hour at 37° C. with different concentrations of the test substance. The cells are subsequently washed twice with McCoy 5A medium and finally poured out into petri dishes after adding 0.3% of agar. Controls are incubated only with fresh medium. Instead of incubating for one hour, different concentrations and test substances are in many cases mixed with the upper agar layer in order to thus achieve continuous exposition of the cells over the entire incubation time. After solidification of the agar, the plates are incubated in an incubator for 7 days at 37° C. (5% by volume of CO2, 95% relative atmospheric humidity). The number of colonies produced with a diameter of more than 60 μm is subsequently counted. The results are given as the number of colonies in the treated agar plate, in per cent of the untreated control. From the dose-action curve thus attained, the IC50 is determined as a measure of the activity of the substance.

A further data set concerns L1210 leukemia. As to the kind of experiment: In vivo activity of the platinum complexes against L1210 leukemia of the mouse. Also noted: optimum Dose (greatest antitumoral effect), L1210: unit not given here. Particulars: for T/C % L1210 (at optimum dose): mean survival time vs untreated control; for cytostatic activity in the "in vivo" test using the L1210 tumor cell line: in words. On the procedure:
c) In vivo activity of the platinum complexes against L1210 leukemia of the mouse
Ascitic fluid is removed under sterile conditions from DBA2 mice (female, 18-20 g) 7 days after implantation. The ascites is washed three times with PBS, counted, and adjusted to a cell number of 10^6 in 0.2 ml of PBS.
10^6 cells, suspended in 0.2 ml of PBS, are subsequently injected intraperitoneally into DBF1 mice (female, 18-20 g). 6 animals per group are employed for each substance concentration or as control.
Determination of the antitumoral activity
a) The animals are weighed on days 1 and 5 after injection of the test substance. A weight loss of more than 20% on day 5 is regarded as an indicator of a toxic substance action.
b) At the end of the experiment (death of all animals or surviving animals on day 60), the mean survival time of the animals in each group is determined, so long as at least 65% of the animals were still living on day 5 of the experiment. The average survival time is determined exclusively for animals dying during the experiment. Long-term survivors (LTS) are not taken into account in this calculation and are specified separately.
From the mean survival time (MST) of the […] group and of the control group (MSTc), the antitumoral activity (T/C) for each substance concentration is determined in per cent of the untreated control from the following formula: [formula]
The dose which causes the greatest antitumoral effect (optimal dosage) and in each case one dose step above and below this dose are collated in Table 1. Animals which are still living on day 60 of the experiment are listed separately as "long-term survivors".

A further data set relates to NMRI mice. Put plainly: Determination of the acute toxicity. The class given is in vivo, mouse. The note with it: 1 × i.p., survival on day 14. On the procedure:
b) Determination of the acute toxicity
In order to determine the acute toxicity, NMRI mice are injected intraperitoneally on day 0 with various doses of a test substance, dissolved in 0.5 ml of 5% glucose solution. Control groups receive only 0.5 ml of 5% strength glucose solution. 5 mice are used per concentration of the test substance. On day 14, the number of surviving mice is determined, and the LD5, LD50 and LD95 are determined from this according to the Lichtfield Wilcoxon method.

A further data set is described as follows: Solubility in water. The class given is physicochemical.
Data set [1] relates to tumor cells which are resistant towards cis-platin. As to the kind of experiment: Cross resistance to cis-diamminedichloroplatinum(II) in vitro / activity in cisplatin-resistant tumor cells. In kind it is cell-based. Particulars: in words.
Where [2] appears, read: treatment program 5 × i.p./i.p.
[3] abbreviates: treatment program 2 × i.p./i.p.
Where [4] appears, read: treatment program 3 × i.p./i.p.

For `CCC(CN)(CN)COC.O=C([O-])C1(C(=O)[O-])CCC1.[Pt+2]` [Compound 32, N,N'-(2-ethyl-2-methyloxymethyl-1,3-propanediamine)platinum(II) 1,1-cyclobutanedicarboxylate], the IC50 in the data set on L1210 leukemia cells was 3.6 µg/mL. The “T/C % L1210 (at optimum dose)” value with L1210 leukemia (setting [2]) came to 194%. The same compound showed an LD50 in the data set on NMRI mice of 437 mg/kg. In the data set “Solubility in water”, the Solubility in water was 70 mg/mL.

Take `COCC(C)(CN)CN.O=C([O-])C1(C(=O)[O-])CCC1.[Pt+2]` [Compound 31, N,N'-(2-methyloxymethyl-2-methyl-1,3-propanediamine)platinum(II) 1,1-cyclobutanedicarboxylate]: the IC50 with L1210 leukemia cells stood at 2.6 µg/mL. For the same compound, in the data set on L1210 leukemia (setting [3]), the “optimum Dose (greatest antitumoral effect), L1210” value came to 112 and the “T/C % L1210 (at optimum dose)” value was determined as 226%. The “LTS (Longterm survivor), L1210” value in the data set on L1210 leukemia (treatment program 2 × i.p./i.p., optimum dose, animals living on day 60) is recorded as 3/6. The same compound returned an LD50 with NMRI mice of 250 mg/kg. The Solubility in water in “Solubility in water” is 15 mg/mL.

For the compound `CCC(CN)(CN)COC.O=C([O-])CC(=O)[O-].[Pt+2]` [corresponding malonate derivative], the “cross resistance in vitro to cis-diamminedichloroplatinum(II)” value in data set [1] is on record as “only partially cross resistant”. Also, the “cytostatic activity in the "in vivo" test using the L1210 tumor cell line” value in the data set with L1210 leukemia is “high cytostatic activity”.

As to `COCC(C)(CN)CN.O=C([O-])CC(=O)[O-].[Pt+2]` [Compound 30, N,N'-(2-methyloxymethyl-2-methyl-1,3-propanediamine)platinum(II) malonate], the IC50 in the data set on L1210 leukemia cells is 1.4 µg/mL.

Take `CC(=O)NC1(CO)C[NH][Pt]([Cl])([Cl])[NH]C1` [Compound 17, N,N'-(2-acetamido-2-hydroxymethyl-1,3-propanediamine)di-chloroplatinum(II)]: the IC50 with L1210 leukemia cells amounted to 1.1 µg/mL. Further, in the data set with L1210 leukemia (setting [4]), the “optimum Dose (greatest antitumoral effect), L1210” value is reported as 30 and the “T/C % L1210 (at optimum dose)” value was found to be 113%. The compound also yielded an LD50 in the data set on NMRI mice of 50 to 100 mg/kg. For the same compound, the Solubility in water in the data set “Solubility in water” worked out at 10 mg/mL.

`COCC(O)COCC(C)(CN)CN.[Cl][Pt][Cl]` (stereo not drawn) [Compound 14, N,N'-(2-(2'-hydroxy-3'-methoxypropyloxymethyl)-2-methyl-1,3-propanediamine)dichloroplatinum(II)] showed an IC50 with L1210 leukemia cells of 0.75 µg/mL. In addition, in the data set on L1210 leukemia (setting [4]), the “optimum Dose (greatest antitumoral effect), L1210” value is given as 4 and the “T/C % L1210 (at optimum dose)” value was 168%. Further, the LD50 in the data set with NMRI mice stood at 57.1 mg/kg. Besides, the Solubility in water in “Solubility in water” was determined as 16 mg/mL.

`CC(CN)(CN)CO[C@@H]1CC[C@H](O)[C@@H](CO)O1.[Cl][Pt][Cl]` [Compound 15, N,N'-(2-(2',3'-didesoxy-alpha-D-erythrohexopyranosyloxy-methyl)-2-methyl-1,3-propanediamine)dichloroplatinum(II)] yielded an IC50 in the data set on L1210 leukemia cells of 2.9 µg/mL. The compound further gave an LD50 in the data set with NMRI mice of 1 to 5 mg/kg. The same compound registered a Solubility in water in the data set “Solubility in water” of 17 mg/mL.

For `COCC(C)(CN)CN.[Cl][Pt][Cl]` [Compound 11, N,N'-(2-methoxymethyl-2-methyl-1,3-propanediamine)dichloro-platinum(II)], the IC50 in the data set with L1210 leukemia cells was determined as 1.4 µg/mL. The compound further returned a Solubility in water in the data set “Solubility in water” of 3 mg/mL.

Turning to `N.N.[Cl][Pt][Cl]` [Cisplatin, cis-diamminedichloroplatinum (II), reference compound], the IC50 in the data set with L1210 leukemia cells amounted to 0.04 µg/mL. Besides, in the data set with L1210 leukemia (setting [4]), the “optimum Dose (greatest antitumoral effect), L1210” value was determined as 4 and the “T/C % L1210 (at optimum dose)” value came to 157%.

As to `CCC(CN)(CN)COC.[Cl][Pt][Cl]` [Compound 12, N,N'-(2-ethyl-2-methoxymethyl-1,3-propanediamine)dichloro-platinum(II)], the “cross resistance in vitro to cis-diamminedichloroplatinum(II)” value in data set [1] was “only partially cross resistant”. Moreover, the IC50 with L1210 leukemia cells came out at 0.5 µg/mL. For the same compound, the “cytostatic activity in the "in vivo" test using the L1210 tumor cell line” value in the data set with L1210 leukemia is “high cytostatic activity”. Moreover, in the data set with L1210 leukemia (setting [4]), the “optimum Dose (greatest antitumoral effect), L1210” value worked out at 3 and the “T/C % L1210 (at optimum dose)” value is on record as 227%. In the data set with NMRI mice, the LD50 was 19 mg/kg.

The compound `CC(CN)(CN)COCC(O)CO.[Cl][Pt][Cl]` (stereo not drawn) [Compound 13, N,N'-(2-(2',3'-dihydroxypropyloxymethyl)-2-methyl-1,3-propanediamine)dichloroplatinum(II)] returned an IC50 in the data set with L1210 leukemia cells of 1.25 µg/mL. In the data set on L1210 leukemia (setting [2]), the “optimum Dose (greatest antitumoral effect), L1210” value is 8 and the “T/C % L1210 (at optimum dose)” value was 156%. For the same compound, in the data set on NMRI mice, the LD50 was 57.3 mg/kg. In the data set “Solubility in water”, this compound showed a Solubility in water of 25 mg/mL.
